Source: patent publication US11807693B2 (priority 2014, dated 2023)
Starred links: 1 amine or outer side, 2 acyl side, 3 side chain; linkers in the order of their positions; H or OH if unused. Non-standard residues stand in square brackets, D forms with d. Residues, ends and D or L forms follow the SMILES beside them. *: point of attachment. dBip = N[C@H](Cc1ccc(-c2ccccc2)cc1)C(=O)O; Oic = O=C(O)[C@@H]1C[C@@H]2CCCC[C@@H]2N1; Phe(4-Cl) = N[C@@H](Cc1ccc(Cl)cc1)C(=O)O; Phe(4-I) = N[C@@H](Cc1ccc(I)cc1)C(=O)O; γGlu = O=C(O)[C@H](CCC(=O)[*:2])N[*:1]; 2Nal = N[C@@H](Cc1ccc2ccccc2c1)C(=O)O; NMehArg = CN[C@@H](CCCCNC(=N)N)C(=O)O; d(β3hF) = N[C@@H](CC(=O)O)Cc1ccccc1; dIgl = N[C@@H](C(=O)O)C1Cc2ccccc2C1; NMeR = CN[C@@H](CCCNC(=N)N)C(=O)O; Palmitoyl = CCCCCCCCCCCCCCCC(=O)*; Tridecanoyl = CCCCCCCCCCCCC(=O)*; X1 = O=C(CN(C1CCNCC1)[*:1])[*:2]; hArg = N=C(N)NCCCC[C@H](N)C(=O)O; Cha = N[C@@H](CC1CCCCC1)C(=O)O; NMeL = CN[C@@H](CC(C)C)C(=O)O; β3hP = O=C(O)C[C@@H]1CCCN1; Pip = O=C(O)[C@@H]1CCCCN1; Nle = CCCC[C@H](N)C(=O)O; Orn = NCCC[C@H](N)C(=O)O; Deg = CCC(N)(CC)C(=O)O; AEEA = NCCOCCOCC(=O)O; Aib = CC(C)(N)C(=O)O

Each molecule was assayed against T1, rat APJ receptor (Rattus norvegicus, UniProt Q9JHG3) (assay: [35S] GTPγS assay, rat APJ receptor). Conditions: Table 16, read-out: EC50 Rat APJ Receptor.
T1 construct: expressed in transfected cells
T1 sequence (Q9JHG3 1-377): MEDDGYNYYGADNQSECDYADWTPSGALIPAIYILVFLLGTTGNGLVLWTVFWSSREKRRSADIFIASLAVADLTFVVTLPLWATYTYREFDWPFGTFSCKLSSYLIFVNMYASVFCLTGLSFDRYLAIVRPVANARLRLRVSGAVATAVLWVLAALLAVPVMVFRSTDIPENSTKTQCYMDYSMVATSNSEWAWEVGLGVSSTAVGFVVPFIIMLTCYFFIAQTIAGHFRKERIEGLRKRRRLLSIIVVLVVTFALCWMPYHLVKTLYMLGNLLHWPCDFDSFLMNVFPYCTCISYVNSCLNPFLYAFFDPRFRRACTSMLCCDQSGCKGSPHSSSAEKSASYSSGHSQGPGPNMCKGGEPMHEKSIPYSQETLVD
Format: biochemical
Method: The membranes were incubated with modified peptides in the assay buffer. […] Bound [^35S] GTPγS was separated from free radiolabel by filtration. The filter bound radioactivity was determined by liquid scintillation counting.

Structure (SMILES) | EC50 [nM]
CCCCCCCCCCCCC(=O)N[C@@H](CCC(=O)NCCOCCOCC(=O)NCCOCCOCC(=O)N[C@H](CCC(N)=O)C(=O)N[C@@H](CCCCNC(=N)N)C(=O)NC(CC)(CC)C(=O)N[C@H](CCCNC(=N)N)C(=O)N[C@@H](CC1CCCCC1)C(=O)N[C@@H](CO)C(=O)N[C@@H](Cc1c[nH]cn1)C(=O)N[C@@H](CCCCN)C(=O)NCC(=O)N1[C@H](C(=O)N[C@@H](CCCC)C(=O)N2CCC[C@H]2C(=O)N[C@@H](Cc2ccc(Cl)cc2)C(=O)O)C[C@@H]2CCCC[C@@H]21)C(=O)O [compound 455] ({Tridecanoyl-γGlu-AEEA-AEEA}-[dQ][hArg][Deg][dR][Cha]SHKG[Oic][Nle]P[Phe(4-Cl)]-OH) | 10.3
CCCCCCCCCCCCC(=O)N[C@@H](CCC(=O)NCCOCCOCC(=O)NCCOCCOCC(=O)N[C@@H](CCC(N)=O)C(=O)N[C@@H](CCCNC(=N)N)C(=O)N1CCC[C@H]1C(=O)N[C@@H](CCC(N)=O)C(=O)N[C@@H](CC(C)C)C(=O)N[C@@H](CO)C(=O)N[C@@H](Cc1c[nH]cn1)C(=O)N[C@@H](CCCCN)C(=O)NCC(=O)N1CCC[C@H]1C(=O)N[C@@H](CCCC)C(=O)N1CCC[C@H]1C(=O)N[C@@H](Cc1ccc(Cl)cc1)C(=O)O)C(=O)O [compound 465] ({Tridecanoyl-γGlu-AEEA-AEEA}-QRPQLSHKGP[Nle]P[Phe(4-Cl)]-OH) | 0.175
CCCCCCCCCCCCC(=O)N[C@@H](CCC(=O)NCCOCCOCC(=O)NCCOCCOCC(=O)N[C@@H](CCC(N)=O)C(=O)N[C@H](CCCNC(=N)N)C(=O)N1CCC[C@H]1C(=O)N(C)[C@@H](CCCCNC(=N)N)C(=O)N[C@@H](CC1CCCCC1)C(=O)N[C@@H](CO)C(=O)N[C@@H](Cc1c[nH]cn1)C(=O)N[C@@H](CCCCN)C(=O)NCC(=O)N1CCC[C@H]1C(=O)N[C@@H](CCCC)C(=O)N1CCC[C@H]1C(=O)N[C@@H](Cc1ccc(Cl)cc1)C(=O)O)C(=O)O [compound 435] ({Tridecanoyl-γGlu-AEEA-AEEA}-Q[dR]P[NMehArg][Cha]SHKGP[Nle]P[Phe(4-Cl)]-OH) | 1.15
CCCCCCCCCCCCC(=O)N[C@@H](CCC(=O)NCCOCCOCC(=O)NCCOCCOCC(=O)N[C@@H](CCC(N)=O)C(=O)N[C@@H](CCCNC(=N)N)C(=O)N1CCC[C@H]1C(=O)N(C)[C@@H](CCCNC(=N)N)C(=O)N[C@@H](CC(C)C)C(=O)N[C@@H](CO)C(=O)N[C@@H](Cc1c[nH]cn1)C(=O)N[C@@H](CCCCN)C(=O)NCC(=O)N1CCC[C@H]1C(=O)N[C@@H](CCCC)C(=O)N[C@@H](Cc1ccc2ccccc2c1)C(=O)O)C(=O)O [compound 403] ({Tridecanoyl-γGlu-AEEA-AEEA}-QRP[NMeR]LSHKGP[Nle][2Nal]-OH) | 8.1
CCCCCCCCCCCCC(=O)N[C@@H](CCC(=O)NCCOCCOCC(=O)NCCOCCOCC(=O)N[C@@H](CCC(N)=O)C(=O)N[C@@H](CCCNC(=N)N)C(=O)N1CCC[C@H]1C(=O)N(C)[C@@H](CCCNC(=N)N)C(=O)N[C@@H](CC1CCCCC1)C(=O)N[C@@H](CO)C(=O)N[C@@H](Cc1c[nH]cn1)C(=O)N[C@@H](CCCCN)C(=O)NCC(=O)N1CCC[C@H]1CC(=O)N[C@@H](CCCC)C(=O)N1CCC[C@H]1C(=O)N[C@@H](Cc1ccc(Cl)cc1)C(=O)O)C(=O)O [compound 417] ({Tridecanoyl-γGlu-AEEA-AEEA}-QRP[NMeR][Cha]SHKG[β3hP][Nle]P[Phe(4-Cl)]-OH) | 8.1
CCCCCCCCCCCCC(=O)N[C@@H](CCC(=O)NCCOCCOCC(=O)NCCOCCOCC(=O)N[C@@H](CCC(N)=O)C(=O)N[C@@H](CCCCNC(=N)N)C(=O)N1CCC[C@H]1C(=O)N(C)[C@@H](CCCNC(=N)N)C(=O)N[C@@](C)(CC(C)C)C(=O)N[C@@H](CO)C(=O)N[C@@H](Cc1c[nH]cn1)C(=O)N[C@@H](CCCCN)C(=O)NCC(=O)N1CCC[C@H]1C(=O)N[C@@H](CCCC)C(=O)N1CCC[C@H]1C(=O)N[C@@H](Cc1ccc(Cl)cc1)C(=O)O)C(=O)O [compound 460] | 0.0627
CCCCCCCCCCCCC(=O)N[C@@H](CCC(=O)NCCOCCOCC(=O)NCCOCCOCC(=O)N[C@H](CCC(N)=O)C(=O)N[C@@H](CCCCNC(=N)N)C(=O)N1CCC[C@H]1C(=O)N[C@H](CCCNC(=N)N)C(=O)N[C@@H](CC1CCCCC1)C(=O)N[C@@H](CO)C(=O)N[C@@H](Cc1c[nH]cn1)C(=O)N[C@@H](CCCCN)C(=O)NCC(=O)N1[C@H](C(=O)N[C@@H](CCCC)C(=O)N2CCC[C@H]2C(=O)N[C@@H](C(=O)O)C2Cc3ccccc3C2)C[C@@H]2CCCC[C@@H]21)C(=O)O [compound 431] ({Tridecanoyl-γGlu-AEEA-AEEA}-[dQ][hArg]P[dR][Cha]SHKG[Oic][Nle]P[dIgl]-OH) | 25
CCCCCCCCCCCCC(=O)N[C@@H](CCC(=O)NCCOCCOCC(=O)NCCOCCOCC(=O)N[C@@H](CCC(N)=O)C(=O)N[C@@H](CCCCNC(=N)N)C(=O)N1CCC[C@H]1C(=O)N(C)[C@@H](CCCNC(=N)N)C(=O)N[C@@H](CC1CCCCC1)C(=O)N[C@@H](CO)C(=O)N[C@@H](Cc1c[nH]cn1)C(=O)N[C@@H](CCCCN)C(=O)NCC(=O)N1[C@H](C(=O)N[C@@H](CCCC)C(=O)N2CCC[C@H]2C(=O)N[C@@H](Cc2ccc3ccccc3c2)C(=O)O)C[C@@H]2CCCC[C@@H]21)C(=O)O [compound 405] ({Tridecanoyl-γGlu-AEEA-AEEA}-Q[hArg]P[NMeR][Cha]SHKG[Oic][Nle]P[2Nal]-OH) | 13.8

Same assay, conditions: rat APJ receptor, read-out: EC50 Rat APJ Receptor

Structure (SMILES) | EC50 [nM]
CCCC[C@H](NC(=O)[C@@H]1CCCN1C(=O)CNC(=O)[C@H](CCCCN)NC(=O)[C@H](Cc1c[nH]cn1)NC(=O)[C@H](CO)NC(=O)[C@H](CC(C)C)N(C)C(=O)[C@H](CCCNC(=N)N)NC(=O)[C@@H]1CCCN1C(=O)[C@H](CCCNC(=N)N)NC(=O)[C@H](CCC(N)=O)NC(=O)[C@H](CCCNC(=N)N)NC(C)=O)C(=O)N1CCC[C@H]1C(=O)N[C@@H](Cc1ccc(Cl)cc1)C(=O)O [compound 64] (Ac-RQRPR[NMeL]SHKGP[Nle]P[Phe(4-Cl)]-OH) | 0.411
CCCCCCCCCCCCCCCC(=O)N[C@@H](CCC(=O)NCCOCCOCC(=O)NCCOCCOCC(=O)N[C@H](CCC(N)=O)C(=O)N(CC(=O)N1CCC[C@H]1C(=O)N(C)[C@@H](CCCNC(=N)N)C(=O)N[C@@H](CC1CCCCC1)C(=O)N[C@@H](CO)C(=O)N[C@@H](Cc1c[nH]cn1)C(=O)N[C@@H](CCCCN)C(=O)NCC(=O)N1CCCC[C@H]1C(=O)N[C@@H](CCCC)C(=O)NC(C)(C)C(=O)N[C@@H](Cc1ccc(Cl)cc1)C(=O)O)C1CCNCC1)C(=O)O [compound 646] ({Palmitoyl-γGlu-AEEA-AEEA}-[dQ][X1]P[NMeR][Cha]SHKG[Pip][Nle][Aib][Phe(4-Cl)]-OH) | 0.994
CCCCCCCCCCCCCCCC(=O)N[C@@H](CCC(=O)NCCOCCOCC(=O)NCCOCCOCC(=O)N[C@H](CCC(N)=O)C(=O)N[C@@H](CCCNC(=N)N)C(=O)N1CCC[C@H]1C(=O)N(C)[C@@H](CCCNC(=N)N)C(=O)N[C@@H](CC1CCCCC1)C(=O)N[C@@H](CO)C(=O)N[C@@H](Cc1c[nH]cn1)C(=O)N(CC(=O)NCC(=O)N1[C@H](C(=O)N[C@@H](CCCC)C(=O)N2CCC[C@H]2CC(=O)N[C@@H](CC(=O)O)Cc2ccccc2)C[C@@H]2CCCC[C@@H]21)C1CCNCC1)C(=O)O [compound 633] ({Palmitoyl-γGlu-AEEA-AEEA}-[dQ]RP[NMeR][Cha]SH[X1]G[Oic][Nle][β3hP][d(β3hF)]-OH) | > 4170
CCCCCCCCCCCCC(=O)N[C@@H](CCC(=O)NCCOCCOCC(=O)NCCOCCOCC(=O)NC(CC)(CC)C(=O)N[C@@H](CCCCNC(=N)N)C(=O)N1CCC[C@H]1C(=O)N[C@H](CCCNC(=N)N)C(=O)N[C@@H](CC1CCCCC1)C(=O)N[C@@H](CO)C(=O)N[C@@H](Cc1c[nH]cn1)C(=O)N[C@@H](CCCCN)C(=O)NCC(=O)N1[C@H](C(=O)N[C@@H](CCCC)C(=O)N2CCC[C@H]2C(=O)N[C@@H](Cc2ccc(Cl)cc2)C(=O)O)C[C@@H]2CCCC[C@@H]21)C(=O)O [compound 558] ({Tridecanoyl-γGlu-AEEA-AEEA}-[Deg][hArg]P[dR][Cha]SHKG[Oic][Nle]P[Phe(4-Cl)]-OH) | 12.5
CCCC[C@H](NC(=O)[C@@H]1CCCN1C(=O)CNC(=O)[C@H](CCCCN)NC(=O)[C@H](Cc1c[nH]cn1)NC(=O)[C@H](CO)NC(=O)[C@H](CC(C)C)N(C)C(=O)[C@H](CCCNC(=N)N)N(C)C(=O)[C@@H]1CCCN1C(=O)[C@H](CCCNC(=N)N)NC(=O)[C@H](CCC(N)=O)NC(=O)[C@H](CCCNC(=N)N)NC(C)=O)C(=O)N1CCC[C@H]1C(=O)N[C@@H](Cc1ccc(Cl)cc1)C(=O)O [compound 67] (Ac-RQRP[NMeR][NMeL]SHKGP[Nle]P[Phe(4-Cl)]-OH) | 1.4

Same assay, conditions: read-out: EC50 Rat APJ Receptor

Structure (SMILES) | EC50 [nM]
CC(=O)N[C@@H](CCCCNC(=N)N)C(=O)N[C@@H](CCCCNC(=N)N)C(=O)N[C@@H](CCC(N)=O)C(=O)N[C@@H](CCCCNC(=N)N)C(=O)N1[C@H](C(=O)N[C@H](CCCNC(=N)N)C(=O)N(C)[C@@H](CC(C)C)C(=O)N[C@@H](CO)C(=O)N[C@@H](Cc2c[nH]cn2)C(=O)N[C@@H](CCCCN)C(=O)NCC(=O)N2[C@H](C(=O)N[C@@H](Cc3ccc(I)cc3)C(=O)N3CCC[C@H]3C(=O)N[C@H](Cc3ccc(-c4ccccc4)cc3)C(=O)O)C[C@@H]3CCCC[C@@H]32)C[C@@H]2CCCC[C@@H]21 [compound 21] (Ac-[hArg][hArg]Q[hArg][Oic][dR][NMeL]SHKG[Oic][Phe(4-I)]P[dBip]-OH) | 1.8
CCCC[C@H](NC(=O)[C@@H]1CCCN1C(=O)CNC(=O)[C@H](CCCCN)NC(=O)[C@H](Cc1c[nH]cn1)NC(=O)[C@H](CO)NC(=O)[C@H](CC1CCCCC1)NC(=O)[C@H](CCCCNC(=N)N)NC(=O)[C@@H]1CCCN1C(=O)[C@H](CCCNC(=N)N)NC(=O)[C@H](CCC(N)=O)NC(=O)[C@H](CCCCNC(=N)N)NC(=O)[C@H](CCCCNC(=N)N)NC(=O)[C@H](Cc1ccccc1)NC(=O)[C@H](CCCN)NC(C)=O)C(=O)N[C@@H](Cc1ccc(Cl)cc1)C(=O)O [compound 48] (Ac-[Orn]F[hArg][hArg]QRP[hArg][Cha]SHKGP[Nle][Phe(4-Cl)]-OH) | 0.486
